Measured values from US9125877B2, “Use of kauranes compounds in the manufacture of medicament” (priority 2004, dated 2015).
Entries after “also recorded” stand apart in the source; their conditions may differ. Like-named read-outs stand apart in the source and are kept apart here.

What was measured:
arterial pressure = conditions: 25 mg/kg intraperitoneal in rats; cited from earlier work
cerebral ischemia = test: Decapitated mouse model of brain ischemia (mouth-opening); format: in vivo, mice
Description: Decapitated mouse model: The mouse first decapitated and the movement of mouth opening was monitored as a sign of respiration. The frequency and duration of mouth-opening was used as an index of cerebral function after decapitation.
The animals were randomly assigned into three groups (n=8, equal number in sex): Control group, only vehicle saline were given; Testing group, compound A (4 mg/kg) dissolved in saline were given; and Positive control group, a reference compound Edaravone (8 mg/kg) dissolved in saline were given, Edaravone is an anti-oxidation drug and has protective effects on neuronal injury (Granl A. et al. 1996).
Vehicle or compounds were administrated intraperitonealy 30 minus before decapitation.

[1] = tested on: ischemic heart (occlusion of left coronary artery and reperfusion); test: Cardiodynamic parameters in the cardiac ischemia-reperfusion rat model; format: in vivo, Sprague-Dawley rats
Description: (§1) Rats were anesthetized, the tracheotomy was performed and an intubation cannula was connected to a respirator for artificial respiration. Arterial blood pressure monitored by a pressure gauge via a femoral artery. A Miller pressure gauge was intervened into left ventricular chamber via a carotid artery to monitor ventricular pressure. The pressure gauges were connected to a Power-lab biological real-time data recording system. ECG was monitored and recorded via subcutaneous needle probes on the arms of rats. The parameters recorded including: Mean arterial blood pressure (MAP), left ventricular systolic pressure (LVSP), the first derivatives of left ventricular pressure (±dp/dtMax), left ventricular diastolic pressure (LVDP), left ventricular end diastolic pressure (LVEDP) and heart rate (HR).
(§2) The chest was open by a left-side thoracotomy between the 4th intercostals space. The pericardium was opened to expose the heart. A stainless needle and a silk suture were placed around the left coronary artery (LCD) and a loose snare ligation was formed. After complete the surgery, the animals were allowed to stabilize for 10 minus before the occlusion of LCD by tightening the snare. A success in occlusion was associated with an area of pericardial cyanosis, an elevation of T wave or ST segment in ECG. The ischemia period of occlusion was maintained from 20 or 30 minus. Cardiac reperfusion was then achieved by releasing of the snare and was confirmed by hyperemic blushing of the previous ischemic area of cyanosis and gradually recovery of the changes in ECG signals. The reperfusion period was maintained for 50 to 80 minus. ECG, MAP and other cardiodynamic data were recorded before the ischemia (control), and during the periods of ischemia and reperfusion.
Control group: occlusion of coronary/ischemia-reperfusion. Testing group: occlusion of coronary/ischemia-reperfusion plus compound A or B
In part of the experiments, the time periods for occlusion and release of coronary were set for 30 min and 80 min, in order to enhance the results of ischemia-reperfusion.

[2] = tested on: ischemic myocardium, myocytes and mitochondria; test: Morphology of ischemic myocardium under light and electron microscope; format: in vivo, Sprague-Dawley rats
Description: At the end of experiments, the ischemic and non-ischemic normal myocardium were excised at the ischemic region respectively from both control or testing groups (compound A 1 mg/kg), and from sham-operated animals at respective region of the heart. The tissues were fixed with paraformaldehyde, embedded in wax, cut into thin or ultra-thin sections, stained and viewed under light or electron microscope.
Analogously to Example 5 except the testing group treated with compound B (2 mg/kg). Myocardiac tissues from non-ischemia, ischemia and testing group animals were excised and prepared as noted above. Myocytes and its ultra structure were examined under light and transmission electron microscope. […] The densities of crestae and matrix appear normal, and the granules normally distributed within mitochondria. […] The histological results were similar to the results from the animal treated with compound A (1 mg/kg) and indicate significant protective effects of compound B on myocardium by alleviating the ischemic damage of myocytes and mitochondria.

Solubility in water = format: physicochemical; conditions: free acid, before salt formation
Description: The salts can be sodium, potassium or other inorganic salts. A preferred method is to use sodium. The method is the following: A solution of […] of NaOH is prepared. The liquid sodium salt of compound A or B was formed by dissolving 1 g of the compound A or B into 10 ml of the above NaOH solution and adjusting the PH to neutral. This liquid sodium salt can be further diluted with sterile water or mixed with pharmaceutical carrier at needed concentration for parenteral administration. It can be stored at room temperature.

[3] = intravenous injection, previously reported; cited from earlier work
ischemic myocardium = test: Infarct size of myocardium after ischemia-reperfusion (Evans blue); format: in vivo, Sprague-Dawley rats; conditions: compound A 1 mg/kg; control 58.6±4.7%; weight of infarct tissue/(infarct + ischemia tissue)
Source text: as §2, with “The reperfusion period was maintained for 50 to 80 minus.” left out
Determination of the infarct size of myocardium: In both control and testing groups, After the end of reperfusion period, the coronary was occluded, Evans blue dye (1%, 0.5 ml) was injected to determine the ischemic and non-ischemic area of myocardium. […] After weighing the respective tissue samples, the infarction size of myocardium was calculated and express as following: Size of infarction=weight of infarct tissue/(weight of infarct tissue+weight of ischemia tissue) x %.

rats = conditions: cited from earlier work
[4] = No obvious toxicity dose, administered intravenously (the invention); format: in vivo
[5] = tested on: ventricular tachycardia and fibrillation caused by coronary ischemia; test: Arrhythmia (VT, VF) during cardiac ischemia by coronary occlusion; format: in vivo, Sprague-Dawley rats; conditions: for VF Duration / VT Duration / VTorVF Onset / VT + VF score: occlusion of coronary for 20 min; for VT + VF score: score = (duration of VT × 1) + (duration of VF × 2)
Description: as §1, §2
Arrhythmia of ventricular tachycardia (VT) and fibrillation (VF) are the main causes of death in clinic. In the control group during ischemia, VT occurred in all of the 11 animals, VF occurred in 10 out of the 11 animals, and 3 out of the 11 animals were dead due to continuation of VF. […] The results from both control and testing groups during cardiac ischemia including the frequency of occurrence, onset time and duration of the VT and VF are shown in table 3.

mice = conditions: cited from earlier work
[6] = tested on: ischemic heart (left anterior descending coronary artery); test: Pig coronary ischemia-reperfusion by balloon-tip catheter in LAD; format: in vivo
Source text: At an extremely high dose, the said effects may be abrogated. In a pig study in the invention, a balloon-tip catheter was intervened into left anterior descending coronary artery (LAD) under the guidance of X-ray angiograph. Coronary ischemia and reperfusion was reproduced by inflating or deflating the balloon. […] Kaurene compounds at this large dose may initiate an opposite or undesired effect which can diminish or override the therapeutic effects mentioned above.

[7] = tested on: ischemic heart (occlusion of left coronary artery and reperfusion); test: Cardiodynamic parameters in the cardiac ischemia-reperfusion rat model; format: in vivo, Sprague-Dawley rats; conditions: stevioside 10 to 15 mg/kg, rats
[8] = reported; large amount, under certain condition in vitro; cited from earlier work
[9] = 4 mg/kg intraperitoneal 30 min before decapitation
[10] = compound A 1 mg/kg i.v., before ischemia
[11] = compound A 1 mg/kg i.v., ischemia
[12] = compound A 1 mg/kg i.v., reperfusion
[13] = 8 mg/kg intraperitoneal 30 min before decapitation
[14] = compound B 2 mg/kg, before ischemia
[15] = compound B 2 mg/kg, during ischemia
[16] = compound B 2 mg/kg, during reperfusion

C[C@@]12CC[C@@H]3[C@@](CC[C@H]4[C@@]3(C)CCC[C@@]4(C)C(=O)O)(CC1=O)C2 [Compound A, (4α,8β,13β)-13-methyl-16-oxo-17-norkauran-18-oic acid]
effect of a large dose on vessels and arterial pressure (arterial pressure): vasodilation and lowering of arterial pressure
Duration of mouth-opening (cerebral ischemia; [9]): 22.9 ± 5 s
Frequency of mouth-opening (cerebral ischemia; [9]): 14.0 ± 3.2
hypotension effect ([1]; 1 mg/kg intravenous in rats): no such hypotension effect
+dp/dt Max.LVSP [1, 10]: 8543 ± 486 mmHg/sec
HR [1, 10]: 367 ± 13 beat/min
LVSP [1, 10]: 111 ± 4 mmHg
MAP [1, 10]: 73 ± 3 mmHg
+dp/dt Max.LVSP [1, 11]: 7468 ± 558 mmHg/sec
HR [1, 11]: 375 ± 10 beat/min
LVSP [1, 11]: 103 ± 3 mmHg
MAP [1, 11]: 70 ± 5 mmHg
+dp/dt Max.LVSP [1, 12]: 8431 ± 340 mmHg/sec
HR [1, 12]: 394 ± 7 beat/min
LVSP [1, 12]: 114 ± 5 mmHg
MAP [1, 12]: 76 ± 3 mmHg
morphology of ischemic myocardium under light microscope ([2]; compound A 1 mg/kg, 100× microscope): Destruction of myocytes was not evident
ultra structure of ischemic myocytes under electron microscope ([2]; compound A 1 mg/kg, ×12000, comparing with non-ischemia myocytes): no observable damages of the myocytes and mitochondria
solubility in water (Solubility in water): not Readily Dissolved in Water
median lethal dose (LD50) [3]: 650 mg/kg
size of infarction after ischemia (ischemic myocardium): 45.8±2.9%
LD50 (rats; intraperitoneal, rats): 617 mg/kg
median lethal dose (LD50) (rats; intravenous injection, rats): 503 mg/kg
major symptoms of toxicity at lethal dose (rats; lethal dose): vasodilation and renal failure
minimum oral lethal dose (rats; oral, rats): 3160 mg/kg
oral median lethal dose (LD50) (rats; oral, rats): 3160 mg/kg
no obvious toxicity dose [4]: up to 40 mg/kg
VF Duration ([5]; 1 mg/kg): 1 s
VT Duration ([5]; 1 mg/kg): 12 + 6 sec
VTorVF Onset ([5]; 1 mg/kg): 730 + 166 sec
VT + VF score ([5]; 1 mg/kg): 14 + 7
survival of cardiac ischemia ([5]; compound A 1 mg/kg, control: 3 out of 11 dead due to continuation of VF): all the animal survived
minimum oral lethal dose (mice): 5060 mg/kg
sever arrhythmia induced by ischemia ([6]; pig pretreated at a small dose): effectively prevented
cardiac contractile function ([6]; pig, extremely high dose (20 times more) administered via LAD): significant decrease in cardiac contractile function
effects on heart before ischemia ([6]; pig, small dose): no observable effects on heart

C=C1C[C@@]23CC[C@H]4[C@@](C)(CCC[C@@]4(C)C(=O)O[C@@H]4O[C@H](CO)[C@@H](O)[C@H](O)[C@H]4O)[C@@H]2CC[C@]1(O[C@@H]1O[C@H](CO)[C@@H](O)[C@H](O)[C@H]1O[C@@H]1O[C@H](CO)[C@@H](O)[C@H](O)[C@H]1O)C3 [stevioside, reference compound]
therapeutic effects on cardiac contractile function [7]: No significant therapeutic effects
therapeutic effects on arrhythmia ([5]; stevioside 10 to 15 mg/kg, rats): No significant therapeutic effects

CC1=NN(c2ccccc2)C(=O)C1 [Edaravone, reference compound]
Duration of mouth-opening (cerebral ischemia; [13]): 17.1 ± 4.3 s
Frequency of mouth-opening (cerebral ischemia; [13]): 13.1 ± 2.4

C=C1C[C@@]23CC[C@H]4[C@@](C)(CCC[C@@]4(C)C(=O)O)[C@@H]2CC[C@]1(O)C3 (single isomer, unassigned; ent-13) [Compound B, ent-13-hydroxykaur-16-en-18-oic acid]
mutagenic effects [8]: certain mutagenic effects; also recorded: may be mutagenic
Duration of mouth-opening (cerebral ischemia; [13]): 20.1 ± 4.1 s
Frequency of mouth-opening (cerebral ischemia; [13]): 12.8 ± 2.7
+dp/dtMax. LVSP [1, 14]: 8609±543 mmHg/sec
LVSP [1, 14]: 112±5 mmHg
+dp/dtMax. LVSP [1, 15]: 7592±433 mmHg/sec
LVSP [1, 15]: 104±4 mmHg
+dp/dtMax. LVSP [1, 16]: 8362±498 mmHg/sec
LVSP [1, 16]: 110±4 mmHg
morphology of ischemic myocardium under light and transmission electron microscope ([2]; compound B 2 mg/kg, comparing with non-ischemia myocytes): Damages of both myocytes and mitochondria were not evident
solubility in water (Solubility in water): not Readily Dissolved in Water
oral median lethal dose (LD50) (rats; rat, in vivo, po): 1500 mg/kg
VF Duration ([5]; 2 mg/kg): 1 s
VT Duration ([5]; 2 mg/kg): 21 + 12 sec
VTorVF Onset ([5]; 2 mg/kg): 660 + 178 sec
VT + VF score ([5]; 2 mg/kg): 22 + 13
animals dead during cardiac ischemia ([5]; compound B 2 mg/kg, n=5, control: 3 out of 11 dead): none of the animals are dead
